Results as given in US6534507B1 (Fabre-Kramer Pharmaceuticals, Inc., priority 1999, dated 2003).
Values joined by “and” are separate entries in the source; they are usually repeats but may differ in a detail not shown here. Identical values can stand only once.

Columns and labels:
M1 = molecular target: T1, M1 (Homo sapiens, UniProt P11229); test: muscarinic receptor binding, M1; settings: read-out: pKi M1 (converted)
T1 construct: expressed in transfected cells
T1 sequence (P11229 1-460): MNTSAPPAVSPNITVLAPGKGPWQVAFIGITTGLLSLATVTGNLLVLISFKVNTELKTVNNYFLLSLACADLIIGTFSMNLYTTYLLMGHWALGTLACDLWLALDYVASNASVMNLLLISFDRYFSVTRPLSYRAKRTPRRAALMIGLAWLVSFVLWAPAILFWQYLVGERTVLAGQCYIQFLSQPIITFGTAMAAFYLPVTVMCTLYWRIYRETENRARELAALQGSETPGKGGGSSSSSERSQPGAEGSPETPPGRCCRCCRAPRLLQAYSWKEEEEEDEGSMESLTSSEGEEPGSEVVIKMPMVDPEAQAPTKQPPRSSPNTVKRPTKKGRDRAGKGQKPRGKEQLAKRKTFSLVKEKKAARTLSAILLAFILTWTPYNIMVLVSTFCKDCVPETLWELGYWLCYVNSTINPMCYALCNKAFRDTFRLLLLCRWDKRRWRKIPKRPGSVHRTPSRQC
Excerpt: (§1) As known in the art, human monoamine GPCR binding profiles were obtained using heterologously expressed cloned human GPCRs in the binding experiments. Both pKi and IC50 (nM concentration) values were obtained as well as an average value of each from at least three determinations.

M2 = molecular target: T2, M2 (Homo sapiens, UniProt P08172); test: muscarinic receptor binding, M2; settings: read-out: pKi M2 (converted)
T2 construct: expressed in transfected cells
T2 sequence (P08172 1-466): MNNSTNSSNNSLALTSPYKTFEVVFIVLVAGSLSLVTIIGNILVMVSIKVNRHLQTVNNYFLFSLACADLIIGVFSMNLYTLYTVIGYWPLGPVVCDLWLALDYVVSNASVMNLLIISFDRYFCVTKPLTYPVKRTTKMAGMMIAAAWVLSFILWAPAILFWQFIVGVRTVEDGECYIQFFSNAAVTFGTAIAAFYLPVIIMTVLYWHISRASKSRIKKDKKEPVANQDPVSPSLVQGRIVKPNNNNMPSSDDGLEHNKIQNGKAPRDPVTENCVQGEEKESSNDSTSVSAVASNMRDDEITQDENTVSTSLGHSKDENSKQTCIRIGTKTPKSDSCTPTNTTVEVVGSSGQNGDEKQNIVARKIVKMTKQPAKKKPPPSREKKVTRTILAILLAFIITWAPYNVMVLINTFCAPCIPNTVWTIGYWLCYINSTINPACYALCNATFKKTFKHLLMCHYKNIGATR
Excerpt: as §1

M3 = molecular target: T3, M3 (Homo sapiens, UniProt P20309); test: muscarinic receptor binding, M3; settings: read-out: pKi M3 (converted)
T3 construct: expressed in transfected cells
Excerpt: as §1

[1] = cited from earlier work; for half-life: result in words
M4 = molecular target: T4, M4 (Homo sapiens, UniProt P08173); test: muscarinic receptor binding, M4; settings: read-out: pKi M4 (converted)
T4 construct: expressed in transfected cells
T4 sequence (P08173 1-479): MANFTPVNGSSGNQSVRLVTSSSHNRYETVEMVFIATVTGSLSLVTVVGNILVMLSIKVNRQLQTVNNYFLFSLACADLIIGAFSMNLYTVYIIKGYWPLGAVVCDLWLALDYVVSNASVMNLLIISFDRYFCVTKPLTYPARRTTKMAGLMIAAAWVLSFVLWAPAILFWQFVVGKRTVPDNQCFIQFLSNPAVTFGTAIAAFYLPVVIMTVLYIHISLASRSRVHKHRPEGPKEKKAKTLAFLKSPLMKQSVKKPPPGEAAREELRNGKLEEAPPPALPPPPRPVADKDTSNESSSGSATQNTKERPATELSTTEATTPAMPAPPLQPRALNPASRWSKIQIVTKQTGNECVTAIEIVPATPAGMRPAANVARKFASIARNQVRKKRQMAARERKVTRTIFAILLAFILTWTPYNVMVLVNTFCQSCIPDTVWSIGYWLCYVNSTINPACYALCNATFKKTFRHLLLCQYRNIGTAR
Excerpt: as §1

[2] = plasma levels of 3-OH gepirone after administration of gepirone; format: in vivo; settings: human subjects administered a dose of gepirone; FIG. 2; result in words
Procedure: “Time (H)” represents time after administration.
Each sample corresponds to a 0.5 ml plasma sample, extracted with 6 ml of (2:1) (v/v) hexane:chloroform for 1 hour. After separation by centrifuge, the organic layer is transferred to a 10 ml conical tube and 90 ul of 1% formic acid is added. The tube is vortexed for 10 minutes and centrifuged for 5 minutes. About 80 ul of the formic acid layer is transferred into injection vials for HPLC/MS analysis.

D4 = molecular target: T5, D4 (Homo sapiens, UniProt P21917); test: dopaminergic receptor binding, D4
T5 construct: expressed in transfected cells
T5 sequence (P21917 1-419): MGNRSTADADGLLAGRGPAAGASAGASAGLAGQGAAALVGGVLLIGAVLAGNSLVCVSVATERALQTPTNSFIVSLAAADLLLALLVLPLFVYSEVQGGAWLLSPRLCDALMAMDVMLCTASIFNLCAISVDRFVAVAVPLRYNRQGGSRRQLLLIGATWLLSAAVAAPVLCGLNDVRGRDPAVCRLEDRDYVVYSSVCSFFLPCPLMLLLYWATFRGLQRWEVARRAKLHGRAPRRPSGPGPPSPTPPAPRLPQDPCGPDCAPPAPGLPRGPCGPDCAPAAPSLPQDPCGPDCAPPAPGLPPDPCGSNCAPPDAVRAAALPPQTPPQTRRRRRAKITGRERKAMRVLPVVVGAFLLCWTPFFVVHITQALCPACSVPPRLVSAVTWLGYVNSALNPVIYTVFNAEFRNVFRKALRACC
Procedure: as §1
(§2) Dopaminergic receptors D2A, D2B, D3, and D4 were also tested.

D2A = molecular target: T6, D2A (Homo sapiens, UniProt P14416); test: dopaminergic receptor binding, D2A; settings: result in words
T6 construct: expressed in transfected cells
Procedure: as §1, §2

D2B = molecular target: T7, D2B (Homo sapiens, UniProt P14416); test: dopaminergic receptor binding, D2B; settings: result in words
T7 construct: expressed in transfected cells
Procedure: as §1, §2

5-HT1A receptor = molecular target: T8, 5-HT1A receptor (Homo sapiens, UniProt P08908); test: human monoamine GPCR binding profile, 5-HT1A
T8 construct: expressed in transfected cells
T8 sequence (P08908 1-422): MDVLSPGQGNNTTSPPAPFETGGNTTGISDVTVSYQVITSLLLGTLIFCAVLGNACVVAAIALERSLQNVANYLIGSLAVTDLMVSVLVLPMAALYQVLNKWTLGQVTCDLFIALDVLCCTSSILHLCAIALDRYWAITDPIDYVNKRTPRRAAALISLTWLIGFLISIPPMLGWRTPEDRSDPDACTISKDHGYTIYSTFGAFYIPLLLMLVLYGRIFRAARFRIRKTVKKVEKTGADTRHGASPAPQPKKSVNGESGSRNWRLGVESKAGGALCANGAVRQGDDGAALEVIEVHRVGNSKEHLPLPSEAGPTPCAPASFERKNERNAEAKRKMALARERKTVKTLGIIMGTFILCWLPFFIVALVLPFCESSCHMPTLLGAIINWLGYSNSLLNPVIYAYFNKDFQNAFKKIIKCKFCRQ
Excerpt: as §1

D3 = molecular target: T9, D3 (Homo sapiens, UniProt P35462); test: dopaminergic receptor binding, D3; settings: result in words
T9 construct: expressed in transfected cells
Procedure: as §1, §2

Alpha 2C receptor = molecular target: T10, Alpha 2C receptor (Homo sapiens, UniProt P18825); test: alpha-adrenergic receptor binding, Alpha 2C; settings: result in words
T10 construct: expressed in transfected cells
T10 sequence (P18825 1-462): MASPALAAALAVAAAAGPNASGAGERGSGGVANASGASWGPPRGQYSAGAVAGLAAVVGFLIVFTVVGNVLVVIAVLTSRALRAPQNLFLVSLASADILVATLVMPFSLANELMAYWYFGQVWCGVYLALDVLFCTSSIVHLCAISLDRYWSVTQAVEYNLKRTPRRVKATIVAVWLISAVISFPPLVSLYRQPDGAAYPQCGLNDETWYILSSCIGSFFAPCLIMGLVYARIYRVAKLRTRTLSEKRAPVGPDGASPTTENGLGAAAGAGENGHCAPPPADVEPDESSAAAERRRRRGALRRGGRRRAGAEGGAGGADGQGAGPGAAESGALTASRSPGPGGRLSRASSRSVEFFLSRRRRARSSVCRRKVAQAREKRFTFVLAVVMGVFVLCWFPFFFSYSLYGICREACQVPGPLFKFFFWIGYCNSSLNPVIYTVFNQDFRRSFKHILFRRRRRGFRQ
Procedure: as §1, §2

Alpha 2B = molecular target: T11, Alpha 2B (Homo sapiens, UniProt P18089); test: alpha-adrenergic receptor binding, Alpha 2B; settings: result in words
T11 construct: expressed in transfected cells
T11 sequence (P18089 1-450): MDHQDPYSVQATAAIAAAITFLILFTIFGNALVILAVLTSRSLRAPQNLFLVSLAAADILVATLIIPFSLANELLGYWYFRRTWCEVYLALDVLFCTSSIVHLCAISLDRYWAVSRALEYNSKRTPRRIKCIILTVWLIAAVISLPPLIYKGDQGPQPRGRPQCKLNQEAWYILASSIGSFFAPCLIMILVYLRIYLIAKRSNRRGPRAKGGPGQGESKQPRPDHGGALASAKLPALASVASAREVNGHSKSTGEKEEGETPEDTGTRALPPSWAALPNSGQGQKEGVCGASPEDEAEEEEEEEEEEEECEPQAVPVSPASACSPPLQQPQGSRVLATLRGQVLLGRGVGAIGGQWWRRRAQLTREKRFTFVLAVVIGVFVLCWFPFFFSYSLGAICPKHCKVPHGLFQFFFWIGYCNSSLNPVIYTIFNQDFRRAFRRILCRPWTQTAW
Procedure: as §1, §2

Alpha 2A = molecular target: T12, Alpha 2A (Homo sapiens, UniProt P08913); test: alpha-adrenergic receptor binding, Alpha 2A; settings: result in words
T12 construct: expressed in transfected cells
T12 sequence (P08913 1-465): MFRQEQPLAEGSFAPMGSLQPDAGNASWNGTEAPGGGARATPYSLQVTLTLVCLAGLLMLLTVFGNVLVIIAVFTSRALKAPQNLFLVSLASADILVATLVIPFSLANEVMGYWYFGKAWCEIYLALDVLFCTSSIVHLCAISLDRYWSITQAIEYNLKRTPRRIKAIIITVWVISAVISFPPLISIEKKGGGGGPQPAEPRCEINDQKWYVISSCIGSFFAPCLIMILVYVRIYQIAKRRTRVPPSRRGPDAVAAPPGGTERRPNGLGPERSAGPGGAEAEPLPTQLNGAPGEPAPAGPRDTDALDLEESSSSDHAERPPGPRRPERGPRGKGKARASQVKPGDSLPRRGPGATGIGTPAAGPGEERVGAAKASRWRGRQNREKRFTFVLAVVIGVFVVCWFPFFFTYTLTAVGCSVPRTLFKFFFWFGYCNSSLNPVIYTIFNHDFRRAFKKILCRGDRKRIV
Procedure: as §1, §2

T3 sequence (P20309 whole entry): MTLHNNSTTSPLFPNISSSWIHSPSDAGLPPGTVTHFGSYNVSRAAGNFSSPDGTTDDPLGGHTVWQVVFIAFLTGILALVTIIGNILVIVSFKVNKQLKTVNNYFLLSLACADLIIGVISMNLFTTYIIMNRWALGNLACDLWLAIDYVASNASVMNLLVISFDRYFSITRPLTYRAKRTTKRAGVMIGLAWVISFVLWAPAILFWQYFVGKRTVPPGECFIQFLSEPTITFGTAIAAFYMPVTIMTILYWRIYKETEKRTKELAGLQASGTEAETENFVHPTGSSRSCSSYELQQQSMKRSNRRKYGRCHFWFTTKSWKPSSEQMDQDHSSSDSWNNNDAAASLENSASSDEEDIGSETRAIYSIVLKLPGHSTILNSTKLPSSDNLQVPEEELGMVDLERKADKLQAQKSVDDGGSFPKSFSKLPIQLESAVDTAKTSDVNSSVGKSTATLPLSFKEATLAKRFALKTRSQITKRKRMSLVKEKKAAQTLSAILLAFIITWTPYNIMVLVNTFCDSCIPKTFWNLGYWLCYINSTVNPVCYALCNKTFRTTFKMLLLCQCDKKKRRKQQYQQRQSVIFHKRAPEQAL
T7 sequence (P14416 1-414 isoform P14416-2): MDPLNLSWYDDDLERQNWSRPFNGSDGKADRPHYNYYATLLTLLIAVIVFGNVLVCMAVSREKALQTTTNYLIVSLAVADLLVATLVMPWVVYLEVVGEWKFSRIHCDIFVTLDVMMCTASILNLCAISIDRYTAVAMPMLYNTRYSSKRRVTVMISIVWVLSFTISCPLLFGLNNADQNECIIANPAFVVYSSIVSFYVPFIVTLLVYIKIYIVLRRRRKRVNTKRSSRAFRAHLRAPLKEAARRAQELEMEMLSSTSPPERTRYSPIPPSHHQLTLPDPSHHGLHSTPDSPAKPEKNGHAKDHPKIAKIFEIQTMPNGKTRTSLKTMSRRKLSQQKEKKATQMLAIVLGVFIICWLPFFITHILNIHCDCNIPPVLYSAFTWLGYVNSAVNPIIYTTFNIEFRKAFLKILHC
T6 sequence (P14416 whole entry): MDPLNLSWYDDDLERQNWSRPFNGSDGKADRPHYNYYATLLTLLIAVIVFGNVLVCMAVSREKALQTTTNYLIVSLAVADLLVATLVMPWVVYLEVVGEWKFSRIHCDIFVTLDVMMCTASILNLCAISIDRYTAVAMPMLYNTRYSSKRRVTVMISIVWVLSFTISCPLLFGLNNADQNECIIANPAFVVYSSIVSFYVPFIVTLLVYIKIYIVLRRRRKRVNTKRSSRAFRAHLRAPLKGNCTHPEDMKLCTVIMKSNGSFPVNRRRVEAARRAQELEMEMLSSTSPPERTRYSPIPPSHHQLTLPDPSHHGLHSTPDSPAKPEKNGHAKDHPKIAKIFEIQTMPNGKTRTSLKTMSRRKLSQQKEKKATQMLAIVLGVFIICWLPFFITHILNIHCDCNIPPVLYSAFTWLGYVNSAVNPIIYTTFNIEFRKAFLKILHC
T9 sequence (P35462 whole entry): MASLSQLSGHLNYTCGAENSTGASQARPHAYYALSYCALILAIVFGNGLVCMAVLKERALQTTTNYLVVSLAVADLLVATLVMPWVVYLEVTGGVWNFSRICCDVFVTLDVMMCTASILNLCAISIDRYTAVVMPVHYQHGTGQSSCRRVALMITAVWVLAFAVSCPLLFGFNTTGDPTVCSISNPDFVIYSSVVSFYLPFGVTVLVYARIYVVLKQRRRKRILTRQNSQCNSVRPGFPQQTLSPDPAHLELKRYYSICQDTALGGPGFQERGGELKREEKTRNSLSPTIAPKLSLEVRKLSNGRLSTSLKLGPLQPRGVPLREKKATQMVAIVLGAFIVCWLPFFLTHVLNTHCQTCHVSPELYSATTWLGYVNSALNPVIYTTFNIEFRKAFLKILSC

| Ki (M1) [µM] | Ki (M2) [µM] | Ki (M3) [µM] | Ki (M4) [µM] | IC50 (D4) [nM] | binding at D2A (D2A) | binding at D2B (D2B) | IC50 (5-HT1A receptor; cloned human GPCR, average of at least three determinations) | selectivity for the 5-HT1A receptor among the serotonergic receptor subtypes (5-HT1A receptor; in vitro binding studies, result in words) | binding at D3 (D3) | binding at the Alpha 2C receptor (Alpha 2C receptor) | affinity at Alpha 2B (Alpha 2B) | affinity at Alpha 2A (Alpha 2A) | Compound | bioavailability ([1]; delivered orally) | half-life [1] | plasma levels of 3-OH gepirone [2] |
| --- | --- | --- | --- | --- | --- | --- | --- | --- | --- | --- | --- | --- | --- | --- | --- | --- |
| > 45.7 | > 45.7 | > 45.7 | > 45.7 | – | – | – | – | – | – | – | – | – | CC1(C)CC(=O)N(CCCCN2CCN(c3ncccn3)CC2)C(=O)C1 [gepirone, 4-dimethyl-1-[4-[4-(2-pyrimidinyl)-1-piperazinyl]butyl]-2,6-piperidinedione, reference compound] | 14-18% | very short | – |
| > 45.7 | > 45.7 | > 45.7 | > 45.7 | ~1420 | insignificant dopaminergic binding | insignificant dopaminergic binding | < 100 nM and ~58 nM | highly selective | insignificant dopaminergic binding | weak binding | did not display significant affinity | did not display significant affinity | CC1(C)CC(=O)N(CCCCN2CCN(c3ncccn3)CC2)C(=O)C1O (stereo not drawn) [3-OH gepirone, 4,4,-dimethyl-3-hydroxy-1-[4-[4-(2-pyrimidinyl)-1-piperazinyl]butyl]-2,6-piperidinedione] | – | – | available quickly and persists in the plasma for extended periods of time |
| – | – | – | – | – | – | – | – | – | – | – | – | – | O=C1CC2(CCCC2)CC(=O)N1CCCCN1CCN(c2ncccn2)CC1 [buspirone] | – | very short | – |
